Converted amounts (≈) assume the structure as drawn.
Tests used:
Pseudomonas aeruginosa [1] = experiment: Antibacterial activity against Pseudomonas aeruginosa harboring mutant SPase by CLSI broth microdilution method; format: functional
Pseudomonas aeruginosa [2] = experiment: Antibacterial activity against wild type Pseudomonas aeruginosa by CLSI broth microdilution method; format: functional
Staphylococcus aureus [3] = experiment: Antibacterial activity against wild type Staphylococcus aureus by CLSI broth microdilution method; format: functional
Escherichia coli [4] = experiment: Antibacterial activity against wild type Escherichia coli by CLSI broth microdilution method; format: functional
Escherichia coli [5] = experiment: Antibacterial activity against Escherichia coli harboring mutant SPase by CLSI broth microdilution method; format: functional
[6] = system: Staphylococcus epidermidis; experiment: Antibacterial activity against wild type Staphylococcus epidermidis by CLSI broth microdilution method; format: functional
Streptococcus pneumoniae [7] = experiment: Antibacterial activity against wild type Streptococcus pneumoniae by CLSI broth microdilution method; format: functional
Streptococcus agalactiae = experiment: Antibacterial activity against wild type Streptococcus agalactiae by CLSI broth microdilution method; format: functional
[8] = system: Staphylococcus epidermidis; experiment: Antibacterial activity against Staphylococcus epidermidis harboring mutant SPase by CLSI broth microdilution method; format: functional
Staphylococcus aureus [9] = experiment: Antibacterial activity against Staphylococcus aureus harboring mutant SPase by CLSI broth microdilution method; format: functional
Staphylococcus aureus [10] = experiment: Antibacterial activity against Staphylococcus aureus harboring wild type SPase by modified CLSI microbroth dilution method; format: functional
Escherichia coli [11] = experiment: Antibacterial activity against Escherichia coli harboring SPase P84S mutant gene by modified CLSI microbroth dilution method; format: functional
Staphylococcus aureus [12] = experiment: Antibacterial activity against Staphylococcus aureus harboring SPase P29S mutant gene by modified CLSI microbroth dilution method; format: functional
Helicobacter pylori = experiment: Antibacterial activity against Helicobacter pylori harboring SPase with alanine residue at position 29 by modified CLSI microbroth dilution method; format: functional
[13] = Binding affinity to Escherichia coli delta 2 to 75 truncated type 1 signal peptidase by fluorescence analysis
Streptococcus pneumoniae [14] = experiment: Antibacterial activity against Streptococcus pneumoniae harboring SPase with aspargine residue at position 29 by modified CLSI microbroth dilution method; format: functional
[15] = system: Corynebacterium glutamicum; experiment: Antibacterial activity against Corynebacterium glutamicum harboring SPase with methionine residue at position 29 by modified CLSI microbroth dilution method; format: functional
[16] = system: Staphylococcus epidermidis; experiment: Antibacterial activity against Staphylococcus epidermidis harboring SPase S29P mutant gene by modified CLSI microbroth dilution method; format: functional
Pseudomonas aeruginosa [17] = experiment: Antibacterial activity against Pseudomonas aeruginosa harboring SPase P84S mutant gene by modified CLSI microbroth dilution method; format: functional
Streptococcus pyogenes = experiment: Antibacterial activity against Streptococcus pyogenes harboring SPase with alanine residue at position 29 by modified CLSI microbroth dilution method; format: functional
[18] = system: Staphylococcus haemolyticus; experiment: Antibacterial activity against Staphylococcus haemolyticus harboring SPase with serine residue at position 29 by modified CLSI microbroth dilution method; format: functional
Escherichia coli [19] = experiment: Antibacterial activity against Escherichia coli harboring wild type SPase by modified CLSI microbroth dilution method; format: functional
Pseudomonas aeruginosa [20] = experiment: Antibacterial activity against Pseudomonas aeruginosa harboring wild type SPase by modified CLSI microbroth dilution method; format: functional
[21] = system: Staphylococcus epidermidis; experiment: Antibacterial activity against Staphylococcus epidermidis assessed as growth inhibition; format: functional
Prescottella equi = experiment: Antibacterial activity against Rhodococcus equi harboring SPase with valine or isoleucine residue at position 29 by modified CLSI microbroth dilution method; format: functional; details: Rhodococcus (subgen. Prescottella) equi
[22] = system: Staphylococcus epidermidis; experiment: Antibacterial activity against Staphylococcus epidermidis harboring wild type SPase by modified CLSI microbroth dilution method; format: functional
Rhodococcus opacus = experiment: Antibacterial activity against Rhodococcus opacus harboring SPase with valine residue at position 29 by modified CLSI microbroth dilution method; format: functional
Lactococcus lactis = experiment: Antibacterial activity against Lactococcus lactis harboring SPase with leucine residue at position 29 by modified CLSI microbroth dilution method; format: functional
Chlamydia trachomatis = experiment: Antibacterial activity against Chlamydia trachomatis harboring SPase with leucine residue at position 29 by modified CLSI microbroth dilution method; format: functional
[23] = system: Staphylococcus epidermidis; experiment: Antibacterial activity against Staphylococcus epidermidis harboring SPase with serine residue at position 29 by modified CLSI microbroth dilution method; format: functional

Row | SMILES | MIC (Pseudomonas aeruginosa [1]) | MIC (Pseudomonas aeruginosa [2]) | MIC (Staphylococcus aureus [3]) | MIC (Escherichia coli [4]) | MIC (Escherichia coli [5]) | MIC [6] | MIC (Streptococcus pneumoniae [7]) | MIC (Streptococcus agalactiae) | MIC [8] | MIC (Staphylococcus aureus [9]) | MIC [21] | further results
1 | CCCCCCCCCCCCCCCC(=O)N(C)[C@H](CO)C(=O)N[C@H](C)C(=O)NCC(=O)N(C)[C@@H]1C(=O)N[C@@H](C)C(=O)N[C@H](C(=O)O)Cc2ccc(O)c(c2)-c2cc1ccc2O[C@@H]1O[C@@H](C)[C@H](O)[C@@H](O)[C@H]1O | 16 µg/mL (≈ 15.6 µM) | > 64 µg/mL | > 64 µg/mL | > 64 µg/mL | 2 µg/mL (≈ 1.95 µM) | 0.25 µg/mL (≈ 0.243 µM) | 8 µg/mL (≈ 7.79 µM) | > 64 µg/mL | 8 µg/mL (≈ 7.79 µM) | 4 µg/mL (≈ 3.89 µM) | – | –
2 | CCCCCCCCCCCCCCCC(=O)N(C)[C@H](CO)C(=O)N[C@H](C)C(=O)NCC(=O)N(C)[C@@H]1C(=O)N[C@@H](C)C(=O)N[C@H](C(=O)O)Cc2ccc(O)c(c2)-c2cc1ccc2O [ARYLOMYCIN C16] | 8 µg/mL (≈ 9.08 µM) | > 64 µg/mL | > 64 µg/mL | > 64 µg/mL | 2 µg/mL (≈ 2.27 µM) | 0.25 µg/mL (≈ 0.284 µM) | 8 µg/mL (≈ 9.08 µM) | > 64 µg/mL | 8 µg/mL (≈ 9.08 µM) | 4 µg/mL (≈ 4.54 µM) | 0.5 µg/mL (≈ 0.567 µM) | MIC (Staphylococcus aureus [10]): > 128 µg/mL; MIC (Escherichia coli [11]): 4 µg/mL (≈ 4.54 µM); MIC (Staphylococcus aureus [12]): 2 µg/mL (≈ 2.27 µM); MIC (Helicobacter pylori): 4 µg/mL (≈ 4.54 µM); Kd [13]: 979 nM; MIC (Streptococcus pneumoniae [14]): 16 µg/mL (≈ 18.2 µM); MIC [15]: 2 µg/mL (≈ 2.27 µM); MIC [16]: 8 µg/mL (≈ 9.08 µM); MIC (Pseudomonas aeruginosa [17]): 8 µg/mL (≈ 9.08 µM); MIC (Streptococcus pyogenes): 16 µg/mL (≈ 18.2 µM); MIC [18]: 2 µg/mL (≈ 2.27 µM); MIC (Escherichia coli [19]): > 128 µg/mL; MIC (Pseudomonas aeruginosa [20]): > 128 µg/mL; MIC (Prescottella equi): 16 µg/mL (≈ 18.2 µM); MIC [22]: 0.25 µg/mL (≈ 0.284 µM); MIC (Rhodococcus opacus): 2 µg/mL (≈ 2.27 µM); MIC (Lactococcus lactis): > 128 µg/mL; MIC (Chlamydia trachomatis): 6 µg/mL (≈ 6.81 µM); MIC [23]: 0.25 µg/mL (≈ 0.284 µM)
3 | CC(C)CCCCCCCCC(=O)N(C)[C@H](CO)C(=O)N[C@H](C)C(=O)NCC(=O)N(C)[C@@H]1C(=O)N[C@@H](C)C(=O)N[C@H](C(=O)O)Cc2ccc(O)c(c2)-c2cc1ccc2O [ARYLOMYCIN A2] | – | – | – | – | – | – | – | – | – | – | 0.5 µg/mL (≈ 0.606 µM) | –
4 | CCCCCCCCCCCCCCCC(=O)N(C)[C@H](CO)C(=O)N[C@H](C)C(=O)NCC(=O)N(C)[C@@H]1C(=O)N[C@@H](C)C(=O)N[C@H](C(=O)O)Cc2cc(c(O)c([N+](=O)[O-])c2)-c2cc1ccc2O | 8 µg/mL (≈ 8.64 µM) | > 64 µg/mL | > 64 µg/mL | > 64 µg/mL | 2 µg/mL (≈ 2.16 µM) | 0.25 µg/mL (≈ 0.27 µM) | 16 µg/mL (≈ 17.3 µM) | 8 µg/mL (≈ 8.64 µM) | 8 µg/mL (≈ 8.64 µM) | 4 µg/mL (≈ 4.32 µM) | – | –

Source: ChEMBL document CHEMBL3217468 (Medchemcomm, 2012)
